# From PubChem BioAssay (NCI)
#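 Cultured in 96-well plates, cells were exposed to test compound for 48 hours across five concentrations. GI50 is the concentration that inhibits growth by half. The concentration for full growth arrest is given as TGI.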
# Legend:
# Experiment in all cases: NCI-60 cell line screen, 48 h
# [1] = tested on: 786-0 renal
# [2] = tested on: A549 NSCLC
# [3] = tested on: ACHN renal
# [4] = tested on: BT-549 breast
# [5] = tested on: CAKI-1 renal
# [6] = tested on: COLO 205 colon
# [7] = tested on: DU-145 prostate
# [8] = tested on: EKVX NSCLC
# [9] = tested on: HCC-2998 colon
# [10] = tested on: HCT-15 colon
# [11] = tested on: HL-60(TB) leukemia
# [12] = tested on: HOP-62 NSCLC
# [13] = tested on: HOP-92 NSCLC
# [14] = tested on: HS 578T breast
# [15] = tested on: K-562 leukemia
# [16] = tested on: KM12 colon
# [17] = tested on: LOX IMVI melanoma
# [18] = tested on: M14 melanoma
# [19] = tested on: MCF7 breast
# [20] = tested on: MDA-MB-231 breast
# [21] = tested on: MDA-MB-435
# [22] = tested on: NCI-H23 lung
# [23] = tested on: NCI-H460 lung
# [24] = tested on: NCI/ADR-RES ovarian
# [25] = tested on: OVCAR-3 ovarian
# [26] = tested on: OVCAR-4 ovarian
# [27] = tested on: OVCAR-5 ovarian
# [28] = tested on: OVCAR-8 ovarian
# [29] = tested on: PC-3 prostate
# [30] = tested on: RPMI-8226 leukemia
# [31] = tested on: RXF 393 renal
# [32] = tested on: SF-268 CNS
# [33] = tested on: SF-295 CNS
# [34] = tested on: SF-539 CNS
# [35] = tested on: SK-MEL-2 melanoma
# [36] = tested on: SK-MEL-28 melanoma
# [37] = tested on: SK-MEL-5 melanoma
# [38] = tested on: SK-OV-3 ovarian
# [39] = tested on: SN12C renal
# [40] = tested on: SNB-19 CNS
# [41] = tested on: SR leukemia
# [42] = tested on: SW-620 colon
# [43] = tested on: T-47D breast
# [44] = tested on: TK-10 renal
# [45] = tested on: U251 CNS
# [46] = tested on: UACC-257 melanoma
# [47] = tested on: UACC-62 melanoma
# [48] = tested on: UO-31 renal
smiles,measurement,setting,value
Cn1c(-c2c(N)n(Cc3ccc(F)cc3)c3nc(C#N)c(C#N)nc23)nc2ccccc21,GI50,[1],0.918 µM
same,TGI,[1],3.59 µM
same,GI50,[2],5.48 µM
same,TGI,[2],> 50 µM
same,GI50,[3],0.829 µM
same,TGI,[3],2.43 µM
same,GI50,[4],2.79 µM
same,TGI,[4],18.2 µM
same,GI50,[5],1.36 µM
same,TGI,[5],4.43 µM
same,GI50,[6],1.52 µM
same,TGI,[6],6.26 µM
same,GI50,[7],3.02 µM
same,TGI,[7],21.6 µM
same,GI50,[8],4.16 µM
same,TGI,[8],> 50 µM
same,GI50,[9],1.35 µM
same,TGI,[9],3.05 µM
same,GI50,[10],2.05 µM
same,TGI,[10],13.6 µM
same,GI50,[11],3.76 µM
same,TGI,[11],> 50 µM
same,GI50,[12],2.32 µM
same,TGI,[12],22.5 µM
same,GI50,[13],1.63 µM
same,TGI,[13],18.4 µM
same,GI50,[14],4.67 µM
same,TGI,[14],26.7 µM
same,GI50,[15],5.19 µM
same,TGI,[15],> 50 µM
same,GI50,[16],2.19 µM
same,TGI,[16],11.2 µM
same,GI50,[17],0.739 µM
same,TGI,[17],2.18 µM
same,GI50,[18],3.48 µM
same,TGI,[18],> 50 µM
same,GI50,[19],2.19 µM
same,TGI,[19],> 50 µM
same,GI50,[20],5.17 µM
same,TGI,[20],38.5 µM
same,GI50,[21],1.83 µM
same,TGI,[21],13.3 µM
same,GI50,[22],1.3 µM
same,TGI,[22],4.08 µM
same,GI50,[23],2.21 µM
same,TGI,[23],25.2 µM
same,GI50,[24],7.56 µM
same,TGI,[24],22.5 µM
same,GI50,[25],0.842 µM
same,TGI,[25],2.6 µM
same,GI50,[26],2.3 µM
same,TGI,[26],> 50 µM
same,GI50,[27],8.55 µM
same,TGI,[27],> 50 µM
same,GI50,[28],1.63 µM
same,TGI,[28],11.8 µM
same,GI50,[29],2.61 µM
same,TGI,[29],> 50 µM
same,GI50,[30],1.35 µM
same,TGI,[30],7.17 µM
same,GI50,[31],1.7 µM
same,TGI,[31],4.86 µM
same,GI50,[32],5.47 µM
same,TGI,[32],> 50 µM
same,GI50,[33],7.68 µM
same,TGI,[33],32.5 µM
same,GI50,[34],13.2 µM
same,TGI,[34],> 50 µM
same,GI50,[35],3.62 µM
same,TGI,[35],34.9 µM
same,GI50,[36],5.65 µM
same,TGI,[36],29 µM
same,GI50,[37],2.97 µM
same,TGI,[37],> 50 µM
same,GI50,[38],11 µM
same,TGI,[38],33.8 µM
same,GI50,[39],2.09 µM
same,TGI,[39],20 µM
same,GI50,[40],12 µM
same,TGI,[40],> 50 µM
same,GI50,[41],1.01 µM
same,TGI,[41],> 50 µM
same,GI50,[42],2.47 µM
same,TGI,[42],21 µM
same,GI50,[43],1.08 µM
same,TGI,[43],4.61 µM
same,GI50,[44],1.09 µM
same,TGI,[44],3.77 µM
same,GI50,[45],3.18 µM
same,TGI,[45],15 µM
same,GI50,[46],4.51 µM
same,TGI,[46],> 50 µM
same,GI50,[47],3.37 µM
same,TGI,[47],26.6 µM
same,GI50,[48],2.51 µM
same,TGI,[48],> 50 µM
